Laboratory results: the supplement of paper PMC11451515

System: P12-Ichikawa
Assay: cell viability relative to DMSO control; higher = less cytotoxic
Settings: 48 h
How it was run: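 NOMO1 or SEM (500 cells/well) or P12-Ichikawa (1000 cells/well) leukemia cells were adapted for at least four passages in each medium. They were seeded in 1536-well plates (5 μl) and pin-dosed with library compounds in DMSO over an 11-point threefold series, 47 μM to 0.79 nM. CellTiter-Glo One luminescence was read after 48 h at 37°C. Viability is the per-plate percentage relative to DMSO wells, with cell-free wells as background.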

[1] = HPLM + 10% dialyzed FBS, 0.000781 µM
[2] = HPLM + 10% dialyzed FBS, 0.00234 µM
[3] = HPLM + 10% dialyzed FBS, 0.00702 µM
[4] = HPLM + 10% dialyzed FBS, 0.0211 µM
[5] = HPLM + 10% dialyzed FBS, 0.0632 µM
[6] = HPLM + 10% dialyzed FBS, 0.19 µM
[7] = HPLM + 10% dialyzed FBS, 0.569 µM
[8] = HPLM + 10% dialyzed FBS, 1.71 µM
[9] = HPLM + 10% dialyzed FBS, 5.12 µM
[10] = HPLM + 10% dialyzed FBS, 15.4 µM
[11] = HPLM + 10% dialyzed FBS, 46.1 µM
[12] = RPMI 5 mM glucose + 10% FBS, 0.000781 µM
[13] = RPMI 5 mM glucose + 10% FBS, 0.00234 µM
[14] = RPMI 5 mM glucose + 10% FBS, 0.00702 µM
[15] = RPMI 5 mM glucose + 10% FBS, 0.0211 µM
[16] = RPMI 5 mM glucose + 10% FBS, 0.0632 µM
[17] = RPMI 5 mM glucose + 10% FBS, 0.19 µM
[18] = RPMI 5 mM glucose + 10% FBS, 0.569 µM
[19] = RPMI 5 mM glucose + 10% FBS, 1.71 µM
[20] = RPMI 5 mM glucose + 10% FBS, 5.12 µM
[21] = RPMI 5 mM glucose + 10% FBS, 15.4 µM
[22] = RPMI 5 mM glucose + 10% FBS, 46.1 µM
[23] = RPMI 5 mM glucose + 10% dialyzed FBS, 0.000781 µM
[24] = RPMI 5 mM glucose + 10% dialyzed FBS, 0.00234 µM
[25] = RPMI 5 mM glucose + 10% dialyzed FBS, 0.00702 µM
[26] = RPMI 5 mM glucose + 10% dialyzed FBS, 0.0211 µM
[27] = RPMI 5 mM glucose + 10% dialyzed FBS, 0.0632 µM
[28] = RPMI 5 mM glucose + 10% dialyzed FBS, 0.19 µM
[29] = RPMI 5 mM glucose + 10% dialyzed FBS, 0.569 µM
[30] = RPMI 5 mM glucose + 10% dialyzed FBS, 1.71 µM
[31] = RPMI 5 mM glucose + 10% dialyzed FBS, 5.12 µM
[32] = RPMI 5 mM glucose + 10% dialyzed FBS, 15.4 µM
[33] = RPMI 5 mM glucose + 10% dialyzed FBS, 46.1 µM

## CCN(c1ccccc1)c1cc(NC)[n+](C)c(C)n1
[1]
  cell viability: 108%
[2]
  cell viability: 111%
[3]
  cell viability: 108%
[4]
  cell viability: 106%
[5]
  cell viability: 111%
[6]
  cell viability: 114%
[7]
  cell viability: 107%
[8]
  cell viability: 107%
[9]
  cell viability: 119%
[10]
  cell viability: 102%
[11]
  cell viability: 101%
[12]
  cell viability: 112%
[13]
  cell viability: 114%
[14]
  cell viability: 120%
[15]
  cell viability: 114%
[16]
  cell viability: 118%
[17]
  cell viability: 106%
[18]
  cell viability: 114%
[19]
  cell viability: 105%
[20]
  cell viability: 108%
[21]
  cell viability: 109%
[22]
  cell viability: 98.9%
[23]
  cell viability: 114%
[24]
  cell viability: 109%
[25]
  cell viability: 112%
[26]
  cell viability: 116%
[27]
  cell viability: 111%
[28]
  cell viability: 118%
[29]
  cell viability: 117%
[30]
  cell viability: 117%
[31]
  cell viability: 111%
[32]
  cell viability: 104%
[33]
  cell viability: 106%

## CNC(=O)[C@H](CC/1=C/N=C\2/C=C\C\C=C12)NC(=O)[C@H](CC(C)C)CC(=O)NO
[1]
  cell viability: 116%
[2]
  cell viability: 108%
[3]
  cell viability: 103%
[4]
  cell viability: 99.5%
[5]
  cell viability: 116%
[6]
  cell viability: 111%
[7]
  cell viability: 116%
[8]
  cell viability: 105%
[9]
  cell viability: 108%
[10]
  cell viability: 30.9%
[11]
  cell viability: 29.8%
[12]
  cell viability: 99.5%
[13]
  cell viability: 107%
[14]
  cell viability: 98%
[15]
  cell viability: 102%
[16]
  cell viability: 108%
[17]
  cell viability: 108%
[18]
  cell viability: 113%
[19]
  cell viability: 106%
[20]
  cell viability: 97.9%
[21]
  cell viability: 28.4%
[22]
  cell viability: 33.3%
[23]
  cell viability: 105%
[24]
  cell viability: 107%
[25]
  cell viability: 107%
[26]
  cell viability: 112%
[27]
  cell viability: 115%
[28]
  cell viability: 114%
[29]
  cell viability: 114%
[30]
  cell viability: 105%
[31]
  cell viability: 107%
[32]
  cell viability: 24.7%
[33]
  cell viability: 32.1%

## CCOC1=CC=CC=C1N\2C(=O)C3=C(C=CC=C3)\N=C2C(C)N4CCN(CC4)C(=O)COC5=CC=C(Cl)C=C5 (stereo not drawn)
[1]
  cell viability: 121%
[2]
  cell viability: 120%
[3]
  cell viability: 116%
[4]
  cell viability: 115%
[5]
  cell viability: 107%
[6]
  cell viability: 111%
[7]
  cell viability: 72.3%
[8]
  cell viability: 15.9%
[9]
  cell viability: 8.63%
[10]
  cell viability: 6.31%
[11]
  cell viability: 4.74%
[12]
  cell viability: 121%
[13]
  cell viability: 126%
[14]
  cell viability: 119%
[15]
  cell viability: 110%
[16]
  cell viability: 117%
[17]
  cell viability: 111%
[18]
  cell viability: 94.4%
[19]
  cell viability: 51.8%
[20]
  cell viability: 9.87%
[21]
  cell viability: 5.31%
[22]
  cell viability: 4.69%

## O.O.CCN1CCN(C(=O)N[C@H](C(=O)N[C@H]2[C@@H]3SC\C(=C(/N3C2=O)C(O)=O)CSC4=NN=N[N]4C)C5=CC=C(O)C=C5)C(=O)C1=O
[1]
  cell viability: 92.1%
[2]
  cell viability: 102%
[3]
  cell viability: 103%
[4]
  cell viability: 11.8%
[5]
  cell viability: 105%
[6]
  cell viability: 103%
[7]
  cell viability: 112%
[8]
  cell viability: 95.9%
[9]
  cell viability: 106%
[10]
  cell viability: 108%
[11]
  cell viability: 108%
[12]
  cell viability: 86.8%
[13]
  cell viability: 99.4%
[14]
  cell viability: 90.8%
[15]
  cell viability: 12.4%
[16]
  cell viability: 103%
[17]
  cell viability: 100%
[18]
  cell viability: 112%
[19]
  cell viability: 96.9%
[20]
  cell viability: 98.7%
[21]
  cell viability: 99.6%
[22]
  cell viability: 105%
[23]
  cell viability: 84.8%
[24]
  cell viability: 88%
[25]
  cell viability: 98.1%
[26]
  cell viability: 22.6%
[27]
  cell viability: 102%
[28]
  cell viability: 101%
[29]
  cell viability: 93.3%
[30]
  cell viability: 97.4%
[31]
  cell viability: 97.7%
[32]
  cell viability: 102%
[33]
  cell viability: 99.5%

## C[C@H]1COC/2=C1/C(=O)C(=O)C3=C4CCCC(C)(C)C4=CC=C23
[1]
  cell viability: 112%
[2]
  cell viability: 118%
[3]
  cell viability: 121%
[4]
  cell viability: 129%
[5]
  cell viability: 127%
[6]
  cell viability: 134%
[7]
  cell viability: 137%
[8]
  cell viability: 124%
[9]
  cell viability: 129%
[10]
  cell viability: 118%
[11]
  cell viability: 94%

## NC(=O)NO
[1]
  cell viability: 85.4%
[2]
  cell viability: 102%
[3]
  cell viability: 100%
[4]
  cell viability: 100%
[5]
  cell viability: 94.3%
[6]
  cell viability: 99.6%
[7]
  cell viability: 102%
[8]
  cell viability: 104%
[9]
  cell viability: 72.4%
[10]
  cell viability: 28.8%
[11]
  cell viability: 2.02%
[12]
  cell viability: 83.7%
[13]
  cell viability: 103%
[14]
  cell viability: 91.4%
[15]
  cell viability: 90.8%
[16]
  cell viability: 98.7%
[17]
  cell viability: 98.5%
[18]
  cell viability: 91.2%
[19]
  cell viability: 90.9%
[20]
  cell viability: 77.1%
[21]
  cell viability: 43.6%
[22]
  cell viability: 0.136%
[23]
  cell viability: 88.4%
[24]
  cell viability: 88.3%
[25]
  cell viability: 87.7%
[26]
  cell viability: 91.4%
[27]
  cell viability: 92.2%
[28]
  cell viability: 96%
[29]
  cell viability: 94.1%
[30]
  cell viability: 87.2%
[31]
  cell viability: 65.2%
[32]
  cell viability: 22.9%
[33]
  cell viability: 2.61%

## CC(C)(O)c1cc2nc(-c3cnc(N)nc3)nc(N3CCOCC3)c2s1
[1]
  cell viability: 120%
[2]
  cell viability: 121%
[3]
  cell viability: 122%
[4]
  cell viability: 125%
[5]
  cell viability: 118%
[6]
  cell viability: 111%
[7]
  cell viability: 108%
[8]
  cell viability: 86.2%
[9]
  cell viability: 74.1%
[10]
  cell viability: 72.6%
[11]
  cell viability: 70%
[12]
  cell viability: 117%
[13]
  cell viability: 127%
[14]
  cell viability: 121%
[15]
  cell viability: 112%
[16]
  cell viability: 114%
[17]
  cell viability: 103%
[18]
  cell viability: 81.8%
[19]
  cell viability: 66.5%
[20]
  cell viability: 61%
[21]
  cell viability: 49.4%
[22]
  cell viability: 48.8%

## N#C/C(C(=O)c1ccc(Cl)cc1Cl)=C1/NC(=O)c2ccc(Cl)cc2N1
[1]
  cell viability: 114%
[2]
  cell viability: 123%
[3]
  cell viability: 108%
[4]
  cell viability: 115%
[5]
  cell viability: 111%
[6]
  cell viability: 111%
[7]
  cell viability: 110%
[8]
  cell viability: 106%
[9]
  cell viability: 103%
[10]
  cell viability: 107%
[11]
  cell viability: 107%
[12]
  cell viability: 115%
[13]
  cell viability: 119%
[14]
  cell viability: 117%
[15]
  cell viability: 107%
[16]
  cell viability: 106%
[17]
  cell viability: 111%
[18]
  cell viability: 107%
[19]
  cell viability: 103%
[20]
  cell viability: 105%
[21]
  cell viability: 105%
[22]
  cell viability: 94.2%
[23]
  cell viability: 106%
[24]
  cell viability: 106%
[25]
  cell viability: 107%
[26]
  cell viability: 110%
[27]
  cell viability: 112%
[28]
  cell viability: 98.9%
[29]
  cell viability: 107%
[30]
  cell viability: 104%
[31]
  cell viability: 97.8%
[32]
  cell viability: 101%
[33]
  cell viability: 98.3%

## C#CCN[C@@H]1CCc2ccccc21.CS(=O)(=O)O
[1]
  cell viability: 105%
[2]
  cell viability: 100%
[3]
  cell viability: 91%
[4]
  cell viability: 105%
[5]
  cell viability: 103%
[6]
  cell viability: 95%
[7]
  cell viability: 98.2%
[8]
  cell viability: 100%
[9]
  cell viability: 91.2%
[10]
  cell viability: 93.5%
[11]
  cell viability: 86.4%
[12]
  cell viability: 97.6%
[13]
  cell viability: 93.6%
[14]
  cell viability: 90.5%
[15]
  cell viability: 95.2%
[16]
  cell viability: 101%
[17]
  cell viability: 103%
[18]
  cell viability: 93.7%
[19]
  cell viability: 85.6%
[20]
  cell viability: 95.9%
[21]
  cell viability: 92.9%
[22]
  cell viability: 84.2%
[23]
  cell viability: 89.5%
[24]
  cell viability: 91.9%
[25]
  cell viability: 94.9%
[26]
  cell viability: 88.8%
[27]
  cell viability: 101%
[28]
  cell viability: 99.1%
[29]
  cell viability: 97%
[30]
  cell viability: 85.5%
[31]
  cell viability: 83.6%
[32]
  cell viability: 83.7%
[33]
  cell viability: 83.5%
